Test results reported in WO2019242687A1, “1,3-dioxane-4,6-dione compound, and preparation method, pharmaceutical composition, and application thereof” (Shanghai Institute of Materia Medica of CAS, priority 2018, dated 2018).
Numbering of substitutions follows the chain as printed. “Also recorded” adds a separate entry of the source.

Tests used:
SIRT1 = biological target: T1, SIRT1 (Homo sapiens, UniProt Q96EB6); assay: Enzyme kinetic reaction test (inhibition type, Michaelis-Menten and Lineweaver-Burk plots); assay type: biochemical
T1 sequence (Q96EB6 1-747): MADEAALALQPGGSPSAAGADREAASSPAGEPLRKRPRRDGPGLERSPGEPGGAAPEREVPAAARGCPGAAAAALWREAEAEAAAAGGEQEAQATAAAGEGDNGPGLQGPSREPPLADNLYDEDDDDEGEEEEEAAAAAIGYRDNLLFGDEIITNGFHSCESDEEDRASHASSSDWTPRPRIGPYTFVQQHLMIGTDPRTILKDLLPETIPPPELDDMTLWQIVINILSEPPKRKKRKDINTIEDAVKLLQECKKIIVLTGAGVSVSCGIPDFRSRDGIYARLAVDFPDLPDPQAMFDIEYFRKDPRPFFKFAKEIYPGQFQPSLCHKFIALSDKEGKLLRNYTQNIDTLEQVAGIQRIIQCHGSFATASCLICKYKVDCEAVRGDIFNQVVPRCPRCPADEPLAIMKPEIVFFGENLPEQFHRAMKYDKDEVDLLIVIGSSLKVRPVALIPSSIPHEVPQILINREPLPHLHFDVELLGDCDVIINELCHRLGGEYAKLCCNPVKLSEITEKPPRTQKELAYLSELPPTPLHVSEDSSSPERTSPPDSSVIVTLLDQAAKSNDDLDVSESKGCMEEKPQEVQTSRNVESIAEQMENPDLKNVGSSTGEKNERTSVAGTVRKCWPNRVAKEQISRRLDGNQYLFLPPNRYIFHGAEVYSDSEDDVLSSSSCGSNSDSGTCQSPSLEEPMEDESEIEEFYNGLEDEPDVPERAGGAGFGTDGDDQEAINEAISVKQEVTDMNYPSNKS

SIRT1 I347A = biological target: T2, SIRT1 I347A (Homo sapiens, UniProt Q96EB6, I347A); assay: Inhibitory constant on SIRT1 mutant I347A; assay type: biochemical
T2 construct: made in house
T2 sequence (Q96EB6 1-747 I347A): T1 sequence (Q96EB6 1-747) with I347A

SIRT1 wild type = biological target: T3, SIRT1 wild type (Homo sapiens, UniProt Q96EB6); assay: Inhibitory constant on SIRT1 wild type; assay type: biochemical
T3 sequence (Q96EB6 1-747): T1 sequence (Q96EB6 1-747)

[1] = system: p53 acetylation levels in SH-SY5Y human neuroblastoma cells; assay: Effect of compounds on p53 acetylation level in cells (Western blot); assay type: cell-based; conditions: ATRA-induced differentiation, compound 10 μM, 2 h, Figure 5
SIRT1 N346A = biological target: T4, SIRT1 N346A (Homo sapiens, UniProt Q96EB6, N346A); assay: Inhibitory constant on SIRT1 mutant N346A; assay type: biochemical
T4 construct: made in house
T4 sequence (Q96EB6 1-747 N346A): T1 sequence (Q96EB6 1-747) with N346A

[2] = fixed Abz polypeptide, with increasing S3 concentration
[3] = fixed NAD+, with increasing S3 concentration

COc1cc(C=C2C(=O)OC(c3ccccc3)OC2=O)cc(Br)c1O (centres unmarked) [Compound S3, 5-(3-bromo-4-hydroxy-5-methoxybenzylidene) -2-phenyl-1,3-dioxane-4,6-dione]
apparent Michaelis constant Km′ for NAD+ (SIRT1; [2]): 不变
initial velocity V0, NAD+ varied (SIRT1; [2]): 减小
apparent Michaelis constant Km′ for Abz polypeptide (SIRT1; [3]): 减小
initial velocity V0, substrate Abz polypeptide varied (SIRT1; [3]): 减小
type of inhibition toward NAD+ (SIRT1; fixed acetylated peptide 30 μM, varied NAD+ 31.25-1000 μM, 0.5 μM SIRT1): 非竞争性抑制; also recorded: NAD +的非竞争性抑制剂
binding site of compound on SIRT1 relative to substrate polypeptide and NAD+ sites (SIRT1; inferred from kinetics): 可能在底物多肽的结合位点; also recorded: 不在NAD +的结合位点
Ki (SIRT1 I347A): 670 nM
Ki (SIRT1 wild type): 160 nM
effect on decrease of p53 acetylation level [1]: 抑制ATRA诱导的SH-SY5Y细胞分化过程中p53乙酰化水平降低
Ki (SIRT1 N346A; mutant N346A): 2470 nM
sensitivity of mutant protein to compound S3 (SIRT1 N346A; mutation of residue 346 (so in the source)): 敏感性降低
